This passage reports Coag. and antlbt. results from US20070099838A1, “Plant-derived peptides harboring water-cleaning and antimicrobial activities” (OPTIMA ENVIRONNEMENT S.A., priority 2003, published 2007).

A short description of assay [1]: Coagulating activity (coagulation agents for water treatment), graded relative to FLO. The arrangement: key: +++: higher activity than FLO; ++: equivalent activity of FLO; +: lower activity than FLO; −: no activity observed. The settings on record: coagulating activity compared with FLO. An excerpt: (§1) More information regarding the detailed description of the invention (e.g. material & methods, experimental results) can be found in international patent application PCT/CH03/00568 which is incorporated by reference.

Assay [2] is described as follows: Antimicrobial (antibiotic) activity, graded relative to FLO. The format is cell-based. Set-up: key: +++: higher activity than FLO; ++: equivalent activity of FLO; +: lower activity than FLO; −: no activity observed. The settings on record: antimicrobial activity compared with FLO.
Excerpt: as §1

Consider AVQLTHQQQGQV [P2c, derivative of FLO], for which the Coag. entry in assay [1] is “−”. In assay [2], the antlbt. entry is “−”.
On to “GQVGPQQVRQMYRVASNIPST [P3, derivative of FLO]”, for which, in assay [1], the Coag. entry is on record as “−”. Further, the antlbt. entry in assay [2] is on record as “−”.
PQRCPSLRQAV [P2a, derivative of FLO]: in assay [1], the Coag. entry was “−”. The antlbt. result in assay [2] is “−”.
Turning to “PQRCPSLRQAVQLTHQ [P2ab, derivative of FLO]”, in assay [1], the Coag. entry is “++”.
With “PQRCPSLRQAVQLTHQQQGQV [P2, derivative of FLO]”, the Coag. entry in assay [1] is “++”. Further, the antlbt. entry in assay [2] is listed as “+”.
In the same order, the values of “PQRCPSLRQAVQLTHQQQRQV [P2GR40, derivative of FLO]” are “+++” and “++”.
As to “QGPGRQPDFQRCGQQLRNISPP [P1, derivative of FLO]”, the Coag. entry in assay [1] was “−”.
In the case of “QGPGRQPDFQRCGQQLRNISPPQRCPSLRQAVQLTHQQQGQVGPQQRQMYRVASNIPST [Flo, protein called FLO, disclosed in WO 03/008441 A2; coagulation and antimicrobial agent, reference compound]”, in assay [1], the Coag. entry is “++”. Moreover, the antlbt. entry in assay [2] is “++”.
On to “RCGQQLRNISPPQRCPSLRQAVQLTHQQQGQ [P2.1, derivative of FLO]”, for which, in assay [1], the Coag. result is reported as “−”.
Regarding SLRQAVQLTHQ [P2b, derivative of FLO], the Coag. result in assay [1] is on record as “−”. For the same sequence, in assay [2], the antlbt. entry is listed as “−”.
